Experimental data reported in patent US12186283B2, “Bismuth-thiol compositions and methods of use” (Microbion Corporation, priority 2018, dated 2025).

Test system: anaerobes (Bacteroides fragilis and Clostridium difficile)
Experiment: Agar dilution MIC (Example 11), group statement
Type: cell-based
Conditions: B. fragilis and C. difficile QC isolates, C. difficile ribotypes incl. 027
Experimental: The test agents were stored at room temperature until assayed. All test agents were suspended and diluted in 100% dimethylsulfoxide (DMSO), and were ultimately tested at a final concentration of 0.06-64 μg/mL.
The susceptibility of anaerobic bacteria was determined by agar dilution using Brucella Agar (BD/BBL; Lot No. 5237692) supplemented with 5 μg/mL hemin (Sigma, St. Louis, MO; Lot No. 108K1088), 1 μg/mL Vitamin K1 and 5% (v/v) laked sheep blood (Cleveland Scientific, Bath, OH; Lot No. 322799).
MIC values for anaerobic bacteria were determined using a reference agar dilution method as described by CLSI (6). Organisms were grown at 35° C. in the Bactron II Anaerobic Chamber (Shel Lab, Cornelius, OR) for approximately 48 hr prior to the assay. Drug dilutions and drug-supplemented agar plates were prepared manually per CLSI (6). The plates were allowed to stand at room temperature for 1 hr to allow the agar surface to dry and pre-reduced for approximately 1 hr in the anaerobe chamber prior to inoculation. Each isolate was suspended to the equivalent of a 0.5 McFarland standard in Brucella broth using a turbidity meter (Dade Behring MicroScan, West Sacramento, CA). Each bacterial cell suspension was then diluted 1:10 in Brucella broth and transferred to wells in a stainless steel replicator block which was used to inoculate the test plates. […] The MIC was read per CLSI guidelines (6).

CC(S)C(C)S.[Bi] (stereo not shown) [BisBDT, bismuth-2,3-butanedithiol]
MIC values (range across isolates): 1 to 4 µg/mL
